# Reference: ChEMBL document CHEMBL6120977, “Structure-Affinity-Pharmacokinetics Relationships of Novel 18F-Labeled 1,4-Diazepane Derivatives for Orexin 1 Receptor Imaging” (J Med Chem, 2024)
# Legend:
# Homo sapiens = species on record: Homo sapiens; test: Selectivity ratio of IC50 for recombinant human OX2R expressed in CHO-S cells to IC50 for recombinant human OX1R expressed in CHO-S cells; format: cell-based; conditions: tested as the 11C-labelled form
# [1] = Apparent permeability in pig LLC-PK1 cells; format: ADME, cell-based, Sus scrofa
# Orexin receptor type 2 = biological target: T1, Orexin receptor type 2 (Homo sapiens, UniProt O43614); test: Displacement of [125I]Orexin A from recombinant human OX2R expressed in CHO-S cells by radioligand competition binding assay; format: cell-based
# T1 sequence (O43614 whole entry): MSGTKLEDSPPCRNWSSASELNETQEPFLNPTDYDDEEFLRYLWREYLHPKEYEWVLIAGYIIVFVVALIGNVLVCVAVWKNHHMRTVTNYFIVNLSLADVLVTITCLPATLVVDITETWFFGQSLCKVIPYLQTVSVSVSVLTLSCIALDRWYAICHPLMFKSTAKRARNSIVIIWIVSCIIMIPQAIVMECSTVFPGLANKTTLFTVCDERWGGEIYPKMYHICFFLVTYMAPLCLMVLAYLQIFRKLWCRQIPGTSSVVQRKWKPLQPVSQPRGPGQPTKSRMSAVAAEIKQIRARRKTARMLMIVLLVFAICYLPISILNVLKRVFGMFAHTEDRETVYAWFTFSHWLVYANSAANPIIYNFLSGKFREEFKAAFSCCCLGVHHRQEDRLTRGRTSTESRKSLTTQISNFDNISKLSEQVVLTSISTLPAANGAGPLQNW
# [2] = biological target: T2, Orexin/Hypocretin receptor type 1 (Homo sapiens, UniProt O43613); test: Displacement of [125I]Orexin A from recombinant human OX1R expressed in CHO-S cells by radioligand competition binding assay; format: cell-based
# T2 sequence (O43613 whole entry): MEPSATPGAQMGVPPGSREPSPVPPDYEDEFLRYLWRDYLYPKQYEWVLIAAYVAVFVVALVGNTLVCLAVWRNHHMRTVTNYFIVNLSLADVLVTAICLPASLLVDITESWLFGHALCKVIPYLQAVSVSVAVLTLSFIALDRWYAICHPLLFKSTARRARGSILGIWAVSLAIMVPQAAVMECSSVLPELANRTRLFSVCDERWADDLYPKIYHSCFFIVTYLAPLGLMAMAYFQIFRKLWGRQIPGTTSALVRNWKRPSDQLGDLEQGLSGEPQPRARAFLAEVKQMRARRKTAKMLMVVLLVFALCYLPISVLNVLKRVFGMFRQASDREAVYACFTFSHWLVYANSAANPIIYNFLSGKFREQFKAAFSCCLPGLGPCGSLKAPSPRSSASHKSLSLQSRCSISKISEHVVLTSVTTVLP
smiles,measurement,setting,value
COc1ccnc(N2CCC3(CCN(Cc4cn(C)c5ccccc45)C(=O)C3)CC2)n1,Ratio IC50,Homo sapiens,5.6
Cc1ccc(-n2nccn2)c(C(=O)N2CCN(c3nc4cc(Cl)ccc4o3)CC[C@H]2C)c1 [SUVOREXANT],Papp,[1],34.6 ×10⁻⁶ cm/s
COc1ccnc(N2CCC3(CCN(Cc4cn([11CH3])c5ccccc45)C(=O)C3)CC2)n1,IC50,Orexin receptor type 2,1410 nM
same,IC50,[2],253 nM
